The values below come from patent US8178534B2, “cMET inhibitors” (Takeda Pharmaceutical Company Limited, priority 2008, dated 2012).

SMILES strings stand for the structures. Where a name gives a salt, the structure may show the parent alone.

Data set [1] deals with T1, cMET enzyme (amino acids 1023-1360) (Homo sapiens, UniProt P08581).
T1 construct: The cMET enzyme (amino acids 1023-1360) nominally at 24 μM was held at −80° C. until use; His tag (N, cleaved yes); made in house; host or cells: Sf9 cells
T1 sequence (P08581 1023-1360): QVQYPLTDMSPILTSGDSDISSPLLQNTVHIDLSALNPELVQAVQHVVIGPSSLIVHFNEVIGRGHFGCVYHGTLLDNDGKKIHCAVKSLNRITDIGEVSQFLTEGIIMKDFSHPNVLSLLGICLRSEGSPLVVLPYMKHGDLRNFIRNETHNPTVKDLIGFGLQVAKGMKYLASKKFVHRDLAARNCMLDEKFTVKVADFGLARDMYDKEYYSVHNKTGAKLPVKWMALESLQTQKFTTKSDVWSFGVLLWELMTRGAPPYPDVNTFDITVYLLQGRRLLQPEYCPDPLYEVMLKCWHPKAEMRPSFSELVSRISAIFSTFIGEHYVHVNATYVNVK
The experiment in a line: Determination of inhibition of cMET (capillary electrophoresis, phosphorylated peptide product). In kind it is biochemical. The conditions noted are these: 1.2 nM cMET, 50 μM ATP, 2 μM FL-2 peptide, 2 hours room temperature.

For another data set, the system named is MKN45. The experiment in a line: Inhibition of cell viability (MTS), MKN45. The class given is cell-based. Particulars: 96 hours incubation. The procedure, abridged:
(§1)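 Cells seeded at 2,000-7,500/well, attached ~24 h, then treated in duplicate with 1:2.5 serial dilutions at 0.5% final DMSO. Viability by MTS; EC50 from non-linear fit after background correction and normalisation to DMSO. MKN45 and EBC1 are cMET-dependent; A549 serves as negative control.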

A further data set relates to EBC1. The experiment in a line: Inhibition of cell viability (MTS), EBC1. Particulars: 96 hours incubation. In kind it is cell-based. The essentials:
as §1

A further data set concerns A549. The experiment in a line: Inhibition of cell viability (MTS), A549 (negative control line). In kind it is cell-based. The conditions noted are these: A549 cells (negative control), 96 hours incubation. The essentials: as §1
Where [2] appears, read: Homo sapiens, MKN-45, 96 h, MKN45 cells.
Where [3] appears, read: Homo sapiens, EBC-1, 96 h, EBC1 cells.

In turn, `O=C(Nc1cn2nc(Sc3nnc4ccc(-c5cnn(CCO)c5)cn34)ccc2n1)C1CC1` (as salt: HCl) [Compound 32] yielded a melting point of 182 to 184 °C.
Consider `Cn1cc(-c2ccc3nnn(Cc4ccc5nc(NC(=O)C6CC6)cn5n4)c3c2)cn1` [13 (free base), N-(6-((6-(1-methyl-1H-pyrazol-4-yl)-1H-benzo[d][1,2,3]triazol-1-yl)methyl)imidazo[1,2-b]pyridazin-2-yl)cyclopropanecarboxamide], for which the melting point fell in the range of 250.2 to 251.6 °C. Further, the IC50 in data set [1] lay within 30 to 59 nM. For the same compound, the EC50 with MKN45 (MKN45 cells) was less than 30 nM. Further, in the data set with EBC1 (EBC1 cells), the EC50 was less than 30 nM. For the same compound, the EC50 with A549 is greater than 50000 nM.
In data set [1], `COCCOc1ccc(-c2ccc3nnc(C(F)(F)c4ccc5nc(NC(=O)C6CC6)cn5n4)n3c2)cc1` [Compound 91, N-(6-(difluoro(6-(4-(2-methoxyethoxy)phenyl)-[1,2,4]triazolo[4,3-a]pyridin-3-yl)methyl)imidazo[1,2-b]pyridazin-2-yl)cyclopropanecarboxamide] returned an IC50 of less than 30 nM. Further, the EC50 in the data set on MKN45 (setting [2]) was less than 30 nM; with EBC1 (setting [3]), less than 30 nM; in the data set with A549 (Homo sapiens, A549, 96 h) it was greater than 50000 nM.
With `O=C(Nc1cn2nc(C(F)(F)c3nnc4ccc(-c5cn[nH]c5)cn34)ccc2n1)C1CC1` [Compound 92, N-(6-((6-(1H-pyrazol-4-yl)-[1,2,4]triazolo[4,3-a]pyridin-3-yl)difluoromethyl)imidazo[1,2-b]pyridazin-2-yl)cyclopropanecarboxamide], the IC50 in data set [1] is less than 30 nM. Also, the EC50 in the data set on MKN45 (setting [2]) was less than 30 nM; in the data set with EBC1 (setting [3]), less than 30 nM; in the data set on A549 (Homo sapiens, A549, 96 h) it was greater than 50000 nM.
As for `CC(C)Oc1cccc(-c2ccc3nnc(C(F)(F)c4ccc5nc(NC(=O)C6CC6)cn5n4)n3c2)c1` [Compound 93, N-(6-(difluoro(6-(3-isopropoxyphenyl)-[1,2,4]triazolo[4,3-a]pyridin-3-yl)methyl)imidazo[1,2-b]pyridazin-2-yl)cyclopropanecarboxamide], the IC50 in data set [1] was in the range of 60 to 100 nM. In addition, the EC50 was in the range of 30 to 59 nM in the data set with MKN45 (setting [2]); 30 to 59 nM in the data set with EBC1 (setting [3]); 8000 to 25000 nM with A549 (Homo sapiens, A549, 96 h).
For `CN(C)c1cccc(-c2ccc3nnc(C(F)(F)c4ccc5nc(NC(=O)C6CC6)cn5n4)n3c2)c1` [Compound 96, N-(6-((6-(3-(dimethylamino)phenyl)-[1,2,4]triazolo[4,3-a]pyridin-3-yl)difluoromethyl)imidazo[1,2-b]pyridazin-2-yl)cyclopropanecarboxamide], the 50% inhibitory concentration (IC50) in data set [1] is less than 30 nM. The EC50 with MKN45 (setting [2]) was less than 30 nM; with EBC1 (setting [3]) it was less than 30 nM; with A549 (Homo sapiens, A549, 96 h), 8000 to 25000 nM.
Consider `Cc1cc(F)cc(-c2ccc3nnc(C(F)(F)c4ccc5nc(NC(=O)C6CC6)cn5n4)n3c2)c1` [Compound 97, N-(6-(difluoro(6-(3-fluoro-5-methylphenyl)-[1,2,4]triazolo[4,3-a]pyridin-3-yl)methyl)imidazo[1,2-b]pyridazin-2-yl)cyclopropanecarboxamide], for which, in data set [1], the IC50 was less than 30 nM. For the same compound, the EC50 with MKN45 (setting [2]) was less than 30 nM; in the data set with EBC1 (setting [3]), less than 30 nM; with A549 (Homo sapiens, A549, 96 h), greater than 50000 nM.
Regarding `CNC(=O)c1ccc(-c2ccc3nnc(C(F)(F)c4ccc5nc(NC(=O)C6CC6)cn5n4)n3c2)cc1F` [Compound 98, 4-(3-((2-(cyclopropanecarboxamido)imidazo[1,2-b]pyridazin-6-yl)difluoromethyl)-[1,2,4]triazolo[4,3-a]pyridin-6-yl)-2-fluoro-N-methylbenzamide], the IC50 in data set [1] was less than 30 nM. In addition, the EC50 with MKN45 (setting [2]) is less than 30 nM; in the data set on EBC1 (setting [3]), less than 30 nM; in the data set with A549 (Homo sapiens, A549, 96 h), greater than 50000 nM.
The compound `Cn1cc(-c2ccc3nnc(C(F)(F)c4ccc5nc(N)cn5n4)n3c2)cn1` [Compound 99, 6-(difluoro(6-(1-methyl-1H-pyrazol-4-yl)-[1,2,4]triazolo[4,3-a]pyridin-3-yl)methyl)imidazo[1,2-b]pyridazin-2-amine] showed an IC50 in data set [1] of 250 to 630 nM. For the same compound, the EC50 was 100 to 249 nM with MKN45 (setting [2]); 100 to 249 nM with EBC1 (setting [3]); greater than 50000 nM in the data set with A549 (Homo sapiens, A549, 96 h).
Regarding `COc1cccc(-c2ccc3nnc(Sc4ccc5nc(NC(=O)C6CC6)cn5n4)n3c2)n1` [Compound 101, N-(6-(6-(6-methoxypyridin-2-yl)-[1,2,4]triazolo[4,3-a]pyridin-3-ylthio)imidazo[1,2-b]pyridazin-2-yl)cyclopropanecarboxamide], the IC50 in data set [1] was less than 30 nM. Besides, the EC50 was 100 to 249 nM in the data set with MKN45 (setting [2]); 30 to 59 nM in the data set with EBC1 (setting [3]); greater than 50000 nM in the data set on A549 (Homo sapiens, A549, 96 h).
On the same counts, the results for `COc1ccc(-c2ccc3nnc(Sc4ccc5nc(NC(=O)C6CC6)cn5n4)n3c2)cn1` [Compound 102, N-(6-(6-(6-methoxypyridin-3-yl)-[1,2,4]triazolo[4,3-a]pyridin-3-ylthio)imidazo[1,2-b]pyridazin-2-yl)cyclopropanecarboxamide] are 30 to 59 nM, 60 to 100 nM, 30 to 59 nM and greater than 50000 nM.
Take `O=C(Nc1cn2nc(Sc3nnc4ccc(-c5ccc(N6CCOCC6)nc5)cn34)ccc2n1)C1CC1` [Compound 103, N-(6-(6-(6-morpholinopyridin-3-yl)-[1,2,4]triazolo[4,3-a]pyridin-3-ylthio)imidazo[1,2-b]pyridazin-2-yl)cyclopropanecarboxamide]: the half-maximal inhibitory concentration (IC50) in data set [1] is less than 30 nM. In addition, the EC50 with MKN45 (setting [2]) is 30 to 59 nM; in the data set with EBC1 (setting [3]), less than 30 nM; in the data set on A549 (Homo sapiens, A549, 96 h), greater than 50000 nM.
In data set [1], `N#Cc1cccc(-c2ccc3nnc(Sc4ccc5nc(NC(=O)C6CC6)cn5n4)n3c2)c1` [Compound 104, N-(6-(6-(3-cyanophenyl)-[1,2,4]triazolo[4,3-a]pyridin-3-ylthio)imidazo[1,2-b]pyridazin-2-yl)cyclopropanecarboxamide] yielded an IC50 of less than 30 nM. In addition, the EC50 in the data set with MKN45 (setting [2]) is less than 30 nM; in the data set with EBC1 (setting [3]), less than 30 nM; with A549 (Homo sapiens, A549, 96 h), greater than 50000 nM.
Compound `N#Cc1cc(-c2ccc3nnc(Sc4ccc5nc(NC(=O)C6CC6)cn5n4)n3c2)ccc1OCCO` [Compound 107, N-(6-(6-(3-cyano-4-(2-hydroxyethoxy)phenyl)-[1,2,4]triazolo[4,3-a]pyridin-3-ylthio)imidazo[1,2-b]pyridazin-2-yl)cyclopropanecarboxamide] gave an IC50 in data set [1] of less than 30 nM. The EC50 was 100 to 249 nM in the data set with MKN45 (Homo sapiens, MKN-45, MKN45 cells); 60 to 100 nM in the data set on EBC1 (Homo sapiens, EBC-1, EBC1 cells); greater than 50000 nM with A549 (Homo sapiens).
As for `N#Cc1cc(-c2ccc3nnc(Sc4ccc5nc(NC(=O)C6CC6)cn5n4)n3c2)cnc1O` [Compound 108, N-(6-(6-(5-cyano-6-hydroxypyridin-3-yl)-[1,2,4]triazolo[4,3-a]pyridin-3-ylthio)imidazo[1,2-b]pyridazin-2-yl)cyclopropanecarboxamide], the IC50 in data set [1] lay within 30 to 59 nM. Besides, the EC50 is 8000 to 25000 nM in the data set with MKN45 (setting [2]); 8000 to 25000 nM in the data set on EBC1 (setting [3]); greater than 50000 nM with A549 (Homo sapiens, A549, 96 h).
In the case of `O=C(Nc1cn2nc(Sc3nnc4ccc(-c5cnc(NCCCO)nc5)cn34)ccc2n1)C1CC1` [Compound 109, N-(6-(6-(2-(3-hydroxypropylamino)pyrimidin-5-yl)-[1,2,4]triazolo[4,3-a]pyridin-3-ylthio)imidazo[1,2-b]pyridazin-2-yl)cyclopropanecarboxamide], in data set [1], the IC50 lay within 250 to 630 nM. Besides, the EC50 is 8000 to 25000 nM in the data set on MKN45 (setting [2]); 8000 to 25000 nM in the data set on EBC1 (setting [3]); 8000 to 25000 nM in the data set on A549 (Homo sapiens, A549, 96 h).
The compound `O=C(Nc1cn2nc(Sc3nnc4ccc(-c5csc(N6CCOCC6)n5)cn34)ccc2n1)C1CC1` [Compound 110, N-(6-(6-(2-morpholinothiazol-4-yl)-[1,2,4]triazolo[4,3-a]pyridin-3-ylthio)imidazo[1,2-b]pyridazin-2-yl)cyclopropanecarboxamide] yielded an IC50 in data set [1] of 30 to 59 nM. Also, the EC50 with MKN45 (setting [2]) was 100 to 249 nM; in the data set on EBC1 (setting [3]), 30 to 59 nM; in the data set with A549 (Homo sapiens, A549, 96 h), greater than 50000 nM.
In data set [1], `O=C(Nc1cn2nc(Sc3nnc4ccc(-c5cccc(CCCO)c5)cn34)ccc2n1)C1CC1` [Compound 111, N-(6-(6-(3-(3-hydroxypropyl)phenyl)-[1,2,4]triazolo[4,3-a]pyridin-3-ylthio)imidazo[1,2-b]pyridazin-2-yl)cyclopropanecarboxamide] gave an IC50 of less than 30 nM. Moreover, the EC50 in the data set with MKN45 (setting [2]) fell in the range of 100 to 249 nM; with EBC1 (setting [3]), 30 to 59 nM; with A549 (Homo sapiens, A549, 96 h), 8000 to 25000 nM.
On the same counts, the results for `Nc1cn2nc(Sc3nnc4ccccn34)ccc2n1` [Compound 114, 6-([1,2,4]triazolo[4,3-a]pyridin-3-ylthio)imidazo[1,2-b]pyridazin-2-amine] are greater than 630 nM, greater than 630 nM, greater than 630 nM and greater than 50000 nM.

The melting point is the temperature, or range, at which the solid turns liquid. Broadly, the IC50 is the midpoint of a concentration-inhibition curve. Low readings indicate greater potency in that assay, high ones weaker potency in that assay. In general, EC50 refers to the concentration giving half of the maximal effect. Higher therefore signals a less potent agent.
